Results on 30 compounds are retold here after the RepoRT retention time repository.

The data set in a line: RP, Waters CORTECS UPLC C18, 100 × 2.1 mm, 1.6 µm, 40 °C, 0.4 mL/min, estimated dead time 0.55 min; A: water + 0.1% formic acid, pH 3; B: acetonitrile + 0.1% formic acid, pH 3; gradient (min/%B) 0/5 1.12/5 6.41/99.5 10.01/99.5. Conditions: stereoisomer not certain.

`CCCCCCCCCCCCCC(=O)OC(CC(=O)[O-])C[N+](C)(C)C` [Myristoyl-L-carnitine]: the LC retention time is 5.13 min.

For `CCCCOC(=O)N(C)SN(C)C(=O)Oc1cccc2c1OC(C)(C)C2` [Furathiocarb], the LC retention time is 6.05 min.

For the compound `Cc1ncc2c(c1O)C(=O)OC2` [4-Pyridoxolactone], the LC retention time was 0.792 min.

As for `COP(N)(=S)Oc1ccccc1C(=O)OC(C)C` (stereo not given) [Isocarbophos], the LC retention time is 2.32 min.

Consider `COP(=O)(OC)C(O)C(Cl)(Cl)Cl` (stereo not given) [Trichlorfon], for which the LC retention time was 3 min.

On to `Cc1c(C)c2c(c(C)c1O)CCC(C)(CCCC(C)CCCC(C)CCCC(C)C)O2` (stereo not drawn) [ALPHA-TOCOPHEROL], for which the LC retention time was 5.92 min.

For the compound `O=C(O)c1cccnc1C(=O)O` [2,3-Pyridinedicarboxylic acid], the LC retention time is 0.763 min.

As to `COC(=O)c1ccc(CNS(C)(=O)=O)cc1S(=O)(=O)NC(=O)Nc1nc(OC)cc(OC)n1` [Mesosulfuron-methyl], the LC retention time was 4.24 min.

`COc1nc(C)nc(NC(=O)NS(=O)(=O)c2ccccc2OCCCl)n1` [Triasulfuron]: the LC retention time was 4.09 min.

For `C[S+](CCC(N)C(=O)[O-])CC1OC(n2cnc3c(N)ncnc32)C(O)C1O` (stereo not given) [S-ADENOSYLMETHIONINE], the LC retention time was 5.56 min.

Turning to `CCCC(Cn1cncn1)c1ccc(Cl)cc1Cl` (stereo not given) [Penconazole], the LC retention time was 5.19 min.

For `CC1=NNC(=O)N(N=Cc2cccnc2)C1` [Pymetrozin], the LC retention time was 1.02 min.

As for `CN(C)C(=O)Nc1ccccc1` [Fenuron], the LC retention time is 3.14 min.

In the case of `CC(C)Oc1cc(-n2nc(C(C)(C)C)oc2=O)c(Cl)cc1Cl` [Oxadiazon], the LC retention time is 6.14 min.

Consider `CCOP(=S)(OCC)SCSP(=S)(OCC)OCC` [Ethion], for which the LC retention time is 6.19 min.

Turning to `NC1=C(Cl)C(=O)c2ccccc2C1=O` [Quinoclamine], the LC retention time was 3.86 min.

On to `CCS(=O)(=O)c1nnc(N(C)C(=O)NC)s1` [Sulfadiazole], for which the LC retention time is 3.13 min.

As to `CON=C(C(=O)OC)c1ccccc1CON=C(C)c1cccc(C(F)(F)F)c1` [Trifloxystrobin], the LC retention time was 5.81 min.

On to `CCOP(=S)(OCC)Oc1cnc2ccccc2n1` [Quinalfos], for which the LC retention time was 5.44 min.

On to `CCOP(=O)(NC(C)C)Oc1ccc(SC)c(C)c1` (stereo not given) [Fenamiphos], for which the LC retention time is 4.89 min.

Turning to `O=C(O)c1ccc(O)c(O)c1` [3,4-DIHYDROXYBENZOATE], the LC retention time was 1.66 min.

As for `CCCN(CC)CC1COC2(CCC(C(C)(C)C)CC2)O1` (stereo not given) [Spiroxamine], the LC retention time was 4.29 min.

Consider `CCOC(=O)CCN(SN(C)C(=O)Oc1cccc2c1OC(C)(C)C2)C(C)C` [Benfuracarb], for which the LC retention time was 6.01 min.

For `Cn1c(=O)c2[nH]cnc2n(C)c1=O` [THEOPHYLLINE], the LC retention time was 2.15 min.

Turning to `CSC1=NC(C)(c2ccccc2)C(=O)N1Nc1ccccc1` (stereo not given) [Fenamidone], the LC retention time was 4.96 min.

Take `Cc1cccc2sc3nncn3c12` [Tricyclazol]: the LC retention time was 3.38 min.

Regarding `COC(=O)N(C(=O)N1COC2(C(=O)OC)Cc3cc(Cl)ccc3C2=N1)c1ccc(OC(F)(F)F)cc1` (stereo not given) [Indoxacarb], the LC retention time was 5.75 min.

In the case of `CC(CCC(=O)NCC(=O)O)C1CCC2C3CCC4CC(O)CCC4(C)C3CCC12C` (stereo not given) [Glycolithocholic acid], the LC retention time was 5.25 min.

In the case of `CCCN(CCC)C(=O)SCc1ccccc1` [Prosulfocarb], the LC retention time was 5.95 min.

As to `O=C(O)c1cccc(O)c1O` [2,3-DIHYDROXYBENZOATE], the LC retention time is 1.66 min.
